According to patent US20230330178A1, “USE OF POLYPEPTIDE IN DRUG FOR PREVENTING AND TREATING PNEUMONIA” (priority 2020, published 2023):
Peptide text beside a SMILES is read from it.

What was measured:
[1] = test system: Escherichia coli; test: animal or person; type: in vivo; conditions: vs model control group
Protocol: (§1) Animals in the blank administration group were not modeled, and inhaled a high-concentration polypeptide aerosol (0.48 mg/L) through nose and mouth every day. Animals in the blank control group were instilled with a 0.5 mL 0.9% sodium chloride injection through trachea. After the remaining groups were slightly anesthetized with ether, the model control group, the erythromycin group, the budesonide group, the low-dose polypeptide treatment group, and the high-dose polypeptide treatment group were instilled with a 1×10^8 CFU/mL mixed bacteria solution of Staphylococcus aureus, Streptococcus pneumoniae, and Escherichia coli through trachea, 0.5 mL/rat, respectively, and the blank control group was instilled with a 0.9% sodium chloride injection of a same volume.
(§2) A specific modeling method was as follows: a rat was anesthetized by ether inhalation and lied on an anatomical plate at an angle of 30-45°, trachea of the rat was exposed under an otoscope, a long puncture needle was connected to a 1 mL syringe and inserted into the trachea, each rat was injected with 0.5 mL of mixed bacteria, the puncture needle was pulled out after the injection, the rat was still kept at the original tilt position for about 10 min, and the bacteria solution flowed into bronchus and alveoli due to gravity to cause infection, so as to induce a rat pneumonia model.
(§3) Each group was administrated for the first time at 2 h after modeling. After the experiment begun, 7.16 mg/mL and 71.6 mg/mL peptide solutions were atomized into aerosol particles with target concentrations of 0.07 and 0.48 mg/L every day, and the animals in the low-dose peptide treatment group and the high-dose peptide treatment group (0.54 mg/kg and 3.7 mg/kg, corresponding to drug concentrations 0.07 and 0.48 mg/L respectively) inhaled the aerosol particles with corresponding concentrations through mouth and nose respectively for 7 consecutive days, 10 min/time, 3 times a day; the blank administration group (cumulative dose 22.2 mg/kg, corresponding to a drug concentration 0.48 mg/L) inhaled 0.48 mg/L peptide aerosol particles through mouth and nose every day for 7 consecutive days, 20 min/time, 3 times a day; the blank control group and the model control group inhaled a 0.9% sodium chloride solution for the same time according to the same method; the erythromycin group and the budesonide group were administrated with a 5 mg/mL erythromycin solution and a 0.05 mg/mL budesonide suspension respectively for the same time according to the same method; and body weight of each group was tested every day.
(§4) Except the blank administration group, half animals of the remaining groups were randomly selected for lung function test, gross anatomy examination, and pathological test on D4 day, and lungs of 3 animals in each group were selected for bacteria culture and counting; and on D8 day, the remaining animals were subjected to lung function test, gross anatomy examination, and pathological test, and lungs of 3 animals in each group were selected for bacteria culture and counting (the blank control group and the blank administration group were not examined).
(§5) Experimental steps of bacteria culture: except the blank administration group, six animals were randomly selected from each of the remaining groups (three animals were randomly selected from the first and last anatomies), left middle lobe lung tissues were taken, washed with 0.9% sodium chloride injection, added with double weight of 0.9% sodium chloride injection, and ground into homogenate, the homogenate was inoculated into a meat extract agar medium and cultured at 37° C. for 16 to 18 h, bacteria were isolated, and each isolated bacteria suspension was diluted to 10^−1, 10^−2, 10^−3, 10^−4, 10^−5, 10^−6, 10^−7 and 10^−8 according to 10 times gradient, namely, 9 mL normal saline plus 1 mL bacteria suspension was 10^−1, and so on. […]

[2] = test system: Streptococcus pneumoniae; test: animal or person; type: in vivo; conditions: vs model control group
Protocol: as §1, §2, §3, §4, §5

[3] = test system: Staphylococcus aureus; test: animal or person; type: in vivo; conditions: vs model control group
Protocol: as §1, §2, §3, §4, §5

[4] = Body weight of pneumonia model rats during the experiment; type: in vivo, SD rats; conditions: FIG. 4
Protocol: as §3

[5] = test system: SD rats; type: in vivo; set-up: MV: minute ventilation: unit not given here
Protocol: as §1, §3, §4
Experimental steps of gross anatomical examination and pathological test: the rats to be tested were anesthetized by intraperitoneal injection of 20% ethyl carbamate (dose 1000 mg/kg), and lung functions of the rats in each group were first tested with a lung function tester. Blood was collected from a ventral aorta, partial pressure of oxygen (PaO2) and partial pressure of carbon dioxide (PaCO2) in the blood of the rats were measured by using a blood gas analyzer, then left lower lobe lung tissues were taken, fixed in formalin, embedded, sectioned, and stained with HE, and pathological changes were observed under the light microscope.

[6] = D4, high-dose 3.7 mg/kg (0.48 mg/L aerosol) inhaled
[7] = D4, low-dose 0.54 mg/kg (0.07 mg/L aerosol) inhaled
[8] = D8, high-dose 3.7 mg/kg (0.48 mg/L aerosol) inhaled
[9] = D8, low-dose 0.54 mg/kg (0.07 mg/L aerosol) inhaled
[10] = D8, not modeled rats (blank administration group), cumulative dose 22.2 mg/kg (0.48 mg/L aerosol) inhaled 7 days

## CSCC[C@H](N)C(=O)NCC(=O)N[C@@H](CCCNC(=N)N)C(=O)N[C@@H](Cc1ccccc1)C(=O)N[C@@H](CCCCN)C(=O)N[C@@H](CCCNC(=N)N)C(=O)N[C@@H](Cc1ccccc1)C(=O)N[C@@H](CCCNC(=N)N)C(=O)N[C@@H](CCCCN)C(=O)N[C@@H](CCCCN)C(=O)N[C@@H](Cc1ccccc1)C(=O)N[C@@H](CCCCN)C(=O)N[C@@H](CCCCN)C(=O)N[C@@H](CC(C)C)C(=O)N[C@@H](Cc1ccccc1)C(=O)N[C@@H](CCCCN)C(=O)N[C@@H](CCCCN)C(=O)N[C@@H](CC(C)C)C(=O)N[C@@H](CO)C(=O)O [polypeptide] (H-MGRFKRFRKKFKKLFKKLS-OH)
[1]; [6]
  Inhibition rate of escherichia coli: 92.16%
[1]; [7]
  Inhibition rate of escherichia coli: 71.19%
[1]; [8]
  Inhibition rate of escherichia coli: 96.57%
[1]; [9]
  Inhibition rate of escherichia coli: 85.77%
[2]; [6]
  Inhibition rate of streptococcus pneumoniae: 90.49%
[2]; [7]
  Inhibition rate of streptococcus pneumoniae: 84.14%
[2]; [8]
  Inhibition rate of streptococcus pneumoniae: 98.74%
[2]; [9]
  Inhibition rate of streptococcus pneumoniae: 94.95%
[3]; [6]
  Inhibition rate of staphylococcus aureus: 90.99%
[3]; [7]
  Inhibition rate of staphylococcus aureus: 80.56%
[3]; [8]
  Inhibition rate of staphylococcus aureus: 97.43%
[3]; [9]
  Inhibition rate of staphylococcus aureus: 96.75%
[4]; high-dose 3.7 mg/kg (0.48 mg/L aerosol) inhaled
  body weight compared with the model control group: no significant difference
[4]; low-dose 0.54 mg/kg (0.07 mg/L aerosol) inhaled
  body weight compared with the model control group: no significant difference
[5]; [10]
  FEV200 (forced expiratory volume): 3.77 ± 1.07 mL
  FEV200/FVC: 93.81 ± 3.03%
  FVC: forced vital capacity: 4.01 ± 1.08 mL
  MV: minute ventilation: 0.20 ± 0.04
  PaCO2: partial pressure of carbon dioxide: 33.09 ± 8.33 mmHg
  PaO2: partial pressure of oxygen: 82.77 ± 11.87 mmHg
  VT: tidal volume: 1.76 ± 0.25 mL
  arterial blood pH: 7.46 ± 0.04
  f: respiratory rate: 116 ± 15 time/min
[5]; D8, not modeled rats (blank administration group), cumulative dose 22.2 mg/kg aerosol inhaled
  Lung tissue microscopy: no obvious abnormality
[5]; SD rats inhaled 22.2 mg/kg polypeptide solution through nose and mouth for 7 consecutive days
  lung function indexes, and WBC, Neu, TNF-α, and IL-6 in alveolar lavage fluid compared with the blank control group: no significant difference
[5]; not modeled rats (blank administration group), cumulative dose 22.2 mg/kg, FIG. 4
  body weight compared with the blank control group: no significant difference
